From US20250120928A1 (University of Maryland, Baltimore, priority 2021, published 2025)
pIC50: −log10 of the molar value. “Also recorded” adds a separate entry of the source.

Columns and labels:
HDAC6 = molecular target: T1, HDAC6 (Homo sapiens, UniProt Q9UBN7); test: Fluorescence-based HDAC activity assay with fluorogenic peptide substrate (Reaction Biology); format: biochemical
T1 construct: purchased Reaction Biology Corporation
T1 sequence (Q9UBN7 1-1215): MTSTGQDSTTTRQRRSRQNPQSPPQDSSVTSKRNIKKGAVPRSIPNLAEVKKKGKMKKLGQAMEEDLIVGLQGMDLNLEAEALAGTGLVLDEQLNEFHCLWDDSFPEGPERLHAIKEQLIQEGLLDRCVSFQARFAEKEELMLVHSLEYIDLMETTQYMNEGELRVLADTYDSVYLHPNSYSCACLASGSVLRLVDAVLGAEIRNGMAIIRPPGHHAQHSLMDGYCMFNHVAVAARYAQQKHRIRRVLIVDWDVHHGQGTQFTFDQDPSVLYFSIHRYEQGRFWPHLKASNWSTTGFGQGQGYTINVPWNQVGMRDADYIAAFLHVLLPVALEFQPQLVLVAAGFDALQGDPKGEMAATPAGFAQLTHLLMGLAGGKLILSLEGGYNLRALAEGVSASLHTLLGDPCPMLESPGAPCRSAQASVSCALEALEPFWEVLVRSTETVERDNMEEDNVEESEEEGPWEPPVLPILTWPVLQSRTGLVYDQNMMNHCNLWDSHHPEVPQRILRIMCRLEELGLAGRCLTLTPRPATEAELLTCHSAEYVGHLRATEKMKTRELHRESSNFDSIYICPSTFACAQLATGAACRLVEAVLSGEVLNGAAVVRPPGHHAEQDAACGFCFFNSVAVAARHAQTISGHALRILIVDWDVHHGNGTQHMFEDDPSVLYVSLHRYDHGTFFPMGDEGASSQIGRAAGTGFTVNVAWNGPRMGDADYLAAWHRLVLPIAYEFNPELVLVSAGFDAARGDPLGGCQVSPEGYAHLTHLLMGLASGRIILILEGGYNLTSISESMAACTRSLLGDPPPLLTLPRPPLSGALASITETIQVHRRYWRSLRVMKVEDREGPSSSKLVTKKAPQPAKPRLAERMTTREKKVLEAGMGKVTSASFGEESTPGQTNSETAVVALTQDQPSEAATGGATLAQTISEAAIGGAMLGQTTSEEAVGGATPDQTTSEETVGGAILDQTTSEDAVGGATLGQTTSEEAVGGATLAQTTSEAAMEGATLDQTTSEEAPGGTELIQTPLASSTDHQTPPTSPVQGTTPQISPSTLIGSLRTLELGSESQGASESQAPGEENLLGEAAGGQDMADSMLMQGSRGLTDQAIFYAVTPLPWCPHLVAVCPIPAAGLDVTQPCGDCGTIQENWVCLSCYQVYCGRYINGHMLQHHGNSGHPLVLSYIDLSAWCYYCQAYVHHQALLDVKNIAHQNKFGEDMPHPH
Procedure: Fluorescence-based activity assays using fluorogenic peptides as substrates for HDAC1, 2, 3, 6, and 8 were performed by Reaction Biology Corporation (reactionbiology.com). […] The substrate for HDACs 1, 2, 3, and 6 was a fluorogenic peptide from p53 residues 379-382 (RHKK(Ac)AMC) (SEQ ID NO: 1). The substrate for HDAC8 was a fluorogenic peptide from p53 residues 379-382 (RHK(Ac)K(Ac)AMC) (SEQ ID NO: 2). SAHA-OH IC50 values were calculated using GraphPad Prism 4 program based on a sigmoidal dose-response equation. The blank (DMSO) value was entered as 1.00×10^−12 of concentration for curve fitting.

[1] = test system: LPS-induced endotoxemia mouse model; test: Plasma cytokine analysis in the LPS-induced endotoxemia mouse model; format: in vivo, male C57BL/6J mice; details: 50 mg/kg i.p. 3 hours before 20 mg/kg LPS i.p.; blood 3 hours post-LPS
Procedure: Terminal cardiac blood draws from the left ventricle occurred 3 hours post LPS injections using a 25 g needle and 1 mL syringe into an EDTA coated lavender blood collection tube (BD Medical, Franklin Lakes, NJ). Blood samples were centrifuged at 1000×g for 10 minutes within 30 minutes of collection. Plasma was extracted and diluted 10,000-fold for ELISA IL-6 measurement and diluted 10-fold for TNFα measurements.
Terminal cardiac blood draws from the left ventricle occurred 3 hours post LPS injections using a 25 g needle and 1 mL syringe into an EDTA coated lavender blood collection tubes (BD Medical, Franklin Lakes, NJ). Blood samples were centrifuged at 1000×g for 10 minutes within 30 minutes of collection. Plasma was extracted and diluted 10,000-fold for ELISA IL-6 measurement and diluted 10-fold for TNFα measurements. MAGPIX Luminex bead-based multiplex ELISA (Thermo Fisher Scientific, Waltham, MA) of mouse plasma (diluted 100-fold) measured for 26 various cytokines and chemokines and data was analyzed using the Luminex xPONENT software (Millipore) as per manufacturer's instructions. The 26-plex panel include murine IL-1β, IL-2, IL-4, IL-5, IL-6, IL-9, IL-10, IL-12p70, IL-13, IL-17A (CTLA-8), IL-18, IL-22, IL-23, IL-27, GM-CSF, IFNγ, TNFα, MCP-1 (CCL2), MIP-1α (CCL3), MIP-10 (CCL4), RANTES (CCL5), MCP-3 (CCL7), Eotaxin (CCL11), GROα (CXCL1), MIP-2a (CXCL2), and IP-10 (CXCL10).

BMMØs = test: Western blot analysis of acetyl-histone H3 and acetyl-α-tubulin; details: 10 μM, unstimulated BMMØs, 4 and 9 hours
Procedure: Day 8 BMMØs were seeded at 1×10^6 cells/well in sterile 6-well plates incubated at 37° C. and 5% CO2 overnight to allow for cell adherence. […] Cells were lysed with Halt™ Protease Inhibitor Cocktail (Cat #78429) (Thermo Fisher, Waltham MA) in RIPA Buffer (Cat #R0278) (Sigma-Aldrich, St. Louis, MO) and scraped with a cell scraper (VWR, Radnor, PA). Lysates were sonicated with a ⅛^th needle tip using a Cole-Parmer 500-Watt Ultrasonic Homogenizer at 40% amplitude for 10 seconds on ice. Lysates were then centrifuged at 4° C. for 20 minutes at 12,000×g. The supernatant was collected and frozen at −80° C. until ready for western blot analysis. Protein lysates were produced using 50/50 sample to 2×SDS/PAGE sample buffer. Proteins were then separated by SDS/PAGE and immunoblotted using Histone H3 (D1H2) XP, Acetyl-Histone H3 (lys9/Lys14), α-Tubulin (11H10), Acetyl-α-Tubulin (Lys40) (D20G3) XP and β-Actin as primary antibodies. ECL was used for detection.
Day 8 BMMØs were seeded at 1×10^6 cells/well in sterile 6-well plates incubated at 37° C. and 5% CO2 overnight to allow for cell adherence. […] Cells were lysed with Halt™ Protease Inhibitor Cocktail (Cat #78429) (Thermo Fisher, Waltham MA) in RIPA Buffer (Cat #R0278) (Sigma-Aldrich, St. Louis, MO) and scraped with a cell scraper (VWR, Radnor, PA). Lysates were sonicated with a ⅛th needle tip using a Cole-Parmer 500-Watt Ultrasonic Homogenizer at 40% amplitude for 10 seconds on ice. Lysates were then centrifuged at 4° C. for 20 minutes at 12,000×g. The supernatant was collected and frozen at −80° C. until ready for western blot analysis. Protein lysates were produced using 50/50 sample to 2×SDS/PAGE sample buffer. Proteins were then separated by SDS/PAGE and immunoblotted using Histone H3 (D1H2) XP, Acetyl-Histone H3 (Lys9/Lys14), α-Tubulin (11H10), Acetyl-α-Tubulin (Lys40) (D20G3) XP and β-Actin as primary antibodies. ECL was used for detection.

## O=C(CCCCCCC(=O)Nc1ccc(CO)cc1)NO [SAHA-OH, N^1-hydroxy-N^8-(4-(hydroxymethyl)phenyl)octanediamide]
HDAC6; 23 nM compared to […] nM
  less selective HDAC6 inhibition compared to Tubastatin A: 1.5 fold
HDAC6; read-out: IC50 against HDAC6
  pIC50: 7.64
[1]
  reduction of plasma IL-6: about 50%
  reduction of plasma TNFα: about 50%
BMMØs
  acetylation of histone H3: slight decrease in histone H3 acetylation compared to SAHA; also recorded: reduced Ac—H3 activity compared to SAHA
  acetylation of α-tubulin: similarly resulted in the acetylation; also recorded: similar
